According to a melting point compilation (Tetko et al.; mined from patent text by program, amines drawn as free bases though some values may be those of a salt):

SMILES | melting point [°C]
CC(C)Nc1cc(=O)n(-c2ccccc2)nc1-c1nc[nH]n1 | 203 to 205
Cc1cc(OC(F)(F)F)ccc1O | 72
CCCc1c(OCCOc2cccc3c2CCCC3)ccc2c1OC(CCC(=O)O)(CCC(=O)O)CC2=O | 160 to 162
CNC(=O)Nc1cccc(OC(=O)N(CCC#N)c2ccccc2)c1 | 147
O=C1CCCC12CCn1c(cc3ccccc31)C2 (stereo not drawn) | 128 to 130
CCOC(=O)c1cc2c3c(ccc2[nH]1)OC[C@H](CO)O3 | 152 to 153
Cc1c(Cl)c(Oc2ccc(C(F)(F)F)cc2[N+](=O)[O-])nn1C(=O)NC(C)C | 89 to 91
CSc1cc(C)nc(SC)c1NC(=O)CCCBr | 139 to 140
CCc1ccc(C(=O)N[C@@H]2CCc3cccc(N4CCN(C)CC4)c3C2)cc1 | 177 to 178
C#Cc1ncn2c1[C@@H]1CCCN1C(=O)c1c(Cl)cccc1-2 | 324 to 325
CCc1ccc2ncc(C(=O)N(O)c3ccccc3)c(O)c2c1 | 218
O=c1[nH]c2ccccc2c(=O)n1Cc1cccnc1 | 241 to 243
O=C(Nc1cccc(C(F)(F)F)c1)c1cccnc1NCc1cccc(O)c1 | 143 to 146
CC1(C)OC(=O)c2c(O)cc(OCc3ccccc3)cc2O1 | 80
CC(=O)Nc1ccccc1C#Cc1c(F)c(F)nc(F)c1F | 204 to 205
COC(=O)NC[C@H]1CN(c2ccc3c(c2)CCCc2cnoc2-3)C(=O)O1 | 166 to 168
C#CCOC(=O)C1=C(N)NC(N)=C(C(=O)OCC#C)C1c1cccc([N+](=O)[O-])c1 | 170
COc1cccc(OC(=O)NC2C(=O)N(CCC(C)C)c3cc(Cl)ccc3N(c3ccccc3)C2=O)c1 (stereo not drawn) | 129 to 130
CC(C)(C)OC(=O)NCC(COC(C(F)(F)F)(C(F)(F)F)C(F)(F)F)(COC(C(F)(F)F)(C(F)(F)F)C(F)(F)F)C(=O)O | 128 to 130
CC(C)(C)c1cc(C(=O)C2CC2)cc(C(C)(C)C)c1O | 140 to 142
CCOC(=O)c1sc2cc(COS(C)(=O)=O)ccc2c1S(=O)c1cccc(OC)c1 (stereo not drawn) | 80 to 83
COc1cccc2c(=O)n(C)c(-c3ccc(OC4CCN(C5CCC5)CC4)cc3)nc12 | 201 to 204

SMILES | melting point [°C]
N#CCCCc1ncc(Br)cc1[N+](=O)[O-] | 73 to 76
Cc1nc(-c2c(F)cccc2Cl)n[nH]1 | 232 to 233
CCCC1(CC(=O)O)OCCc2c1[nH]c1c(C)ccc(C(=O)NC)c21 (stereo not drawn) | 89 to 91
CC1=CC(=O)C(N)=CC1=N | 205
CCCCCCCCCOc1ccc(-c2ccc(C3CCC(C#N)(CCCCCCCCC)CC3)cc2)cc1 (stereo not drawn) | 86
CCOC(=O)C1=C(N)NC2=C(C(=O)CCC2)C1C (stereo not drawn) | 236
COc1cccc2c1nc(C)c1ccn(-c3ccccc3C)c12 | 143 to 145
COc1ccccc1OC1CCN(CCCNC(=O)c2cccc3c(=O)c(C)c(-c4ccccc4)oc23)CC1 | 154 to 156
COCC1OC(n2cnc3c(Cl)nc(Cl)nc32)C(OC(C)=O)C1OC(C)=O (stereo not drawn) | 59 to 61
c1ccc2c(CN3CCN(Cc4ccc5c(c4)OCO5)CC3)n[nH]c2c1 | 175 to 176
O=C(O)CC(CC(=O)O)c1ccc2oc3c(c2c1)CCCC3 | 165 to 170
O=C(O)C=C1SC(=Nc2ccc(Br)c(Br)c2)N(c2ccc(Br)c(Br)c2)C1=O | 235 to 237
O=C1Nc2ccc(-c3ccc(F)c(Cl)c3)cc2C12CCCC2 | 202 to 204
CC(=O)Nc1nc(/C=C\c2ccc([N+](=O)[O-])cc2)cs1 | 155 to 157
CCCc1cc(=O)oc2cc(O)ccc12 | 135 to 137
Nc1cc(Cl)c(S)cc1S(N)(=O)=O | 192 to 195
COCc1nc(N)nc(N)c1-c1cccc(Cl)c1Cl | 237 to 240
COc1ccccc1N1CCN(CCCNC(=O)c2cccc3c(=O)c(C)c(C4CCC(C)CC4)oc23)CC1 (stereo not drawn) | 166
CC(c1ccc(Cl)cc1)N1CCNC1=NC#N (stereo not drawn) | 133
CN(C)c1cccc(C(=O)NCCc2c3n(c4ccccc24)C(=O)CCC3)c1 | 136
N#CC(c1ccccc1Cl)N1CCOCC1 (stereo not drawn) | 40 to 42
CNS(=O)(=O)c1cc(-c2ccc(C(F)(F)F)n(C)c2=O)c(F)cc1Cl | 150 to 151

SMILES | melting point [°C]
C#CCON=C(C(C)=NOCc1ccccc1C(=COC)C(=O)OC)c1ccccc1 | 163 to 165
COCCc1nc2c(N)nc3ccc(CCC(=O)N4CCOCC4)cc3c2n1CCCN1CCCC1=O | 168 to 170
COc1cc(Nc2nccc(-c3ccc(NCCN4CCCC4)nc3)n2)cc(OC)c1OC | 165 to 166
CCOC(=O)c1c(N2CC3CC2CN3)c2cc(C)ccc2n(Cc2ccccc2)c1=O (stereo not drawn) | > 72
COc1c(NCc2cccc(C)c2)cc2oc(=O)[nH]c2c1F | 160 to 161
CC(C)Cc1ccc2ccc(=O)[nH]c2n1 | 135 to 137
C=Cn1cc(C(=O)O)c(=O)c2cc(F)c(N3CCOCC3)cc21 | 218 to 220
O=C(O)c1cc([N+](=O)[O-])c(Cl)c(S(=O)(=O)Cl)c1 | 189 to 190
O=C(O)CCCNC(=O)c1cc(Cl)ccc1O | 136 to 140
COc1ccc(CBr)cc1-c1nsc2ccc(-n3c(=O)cc(C(F)(F)F)n(C)c3=O)cc12 | 158 to 160
CONC(=NCCSCc1[nH]cnc1C)NC#N | 155 to 156
CNC(=S)N1CC(Oc2cccc(C(F)(F)F)c2)C1 | 79 to 86
Cc1cccc(-c2sc(N)nc2-c2ccnc(-c3ccc(C(=O)NC4CCOCC4)cc3)c2)n1 | 283
COc1cc2ccc(-c3ccccc3N)cc2cc1OC | 215 to 217
Cn1c(COc2ccc(CC3SC(=O)NC3=O)cc2)nc2ccc(Oc3ccc(NC(=O)c4ccc(F)cc4F)cc3)cc21 (stereo not drawn) | 172 to 174
O=C(Nc1ccc(N2CCOCC2=O)cc1)[C@H]1C=CCN1C(=O)Nc1ccc(Cl)cc1 | 245
CN(N)C1=Nc2ccc(Cl)cc2C(c2ccccc2)=NC1 | 167 to 173
NS(=O)(=O)c1cccc(-c2cccc(-c3nc(-c4ccc(F)c(F)c4)cc(C(F)(F)F)n3)c2)c1 | 211
CCCn1c(=O)[nH]c(Cl)c(-c2ccccc2)c1=O | 230 to 231
N[C@@H](CO)C(=O)Nn1cccc1 | 135 to 137
CNn1cc(C(=O)O)c(=O)c2cc(F)c(N3CCN(C)CC3)cc21 | 299 to 301
CCOC(=O)c1cc(=O)cc(-c2ccc([N+](=O)[O-])cc2)o1 | 160 to 162

Second part, the compound after the results:

melting point [°C] | SMILES
193 to 194 | COc1ccnc(CCc2nc3cc(-c4ccoc4)cnc3[nH]2)c1
175 to 180 | N#Cc1c(N2CCc3ccccc3CC2)nc(NCCCOc2ccccc2)[nH]c1=O
110 | O=S(=O)(On1nnc2ccc(Cl)cc21)c1ccccc1
226 to 228 | Cc1nc(-c2ccc(C(F)(F)F)cc2)sc1COc1ccc(/C=C/C(=O)O)cc1
72 to 74 | COC(=O)c1cncc(SCc2ccc(OC)cc2)c1
101 | CC(=NCc1ccc(Cl)cc1Cl)c1ccc(OCC(O)(Cn2cncn2)C(C)(C)C)cc1 (stereo not drawn)
132 to 134 | Cc1cccc2[nH]c(C(=O)NCCc3ccc(CCCC(=O)O)cc3)cc12
153 to 156 | CS(=O)(=O)c1ccc(-c2cnn(Cc3ccncc3)c(=O)c2-c2ccc(F)cc2)cc1
80 to 84 | Cc1ccc(-c2cc([Si](C)(C)C)oc2-c2ccc(Cl)cc2)cc1
93 to 96 | CC(C)(C)OC(=O)N[C@@H](Cc1ccccc1)C(=O)NCCC(=O)OCc1ccccc1
198 to 199 | COc1cc(OC)cc(C(=O)NC(NC(=NC#N)Nc2cccnc2OC)C(C)(Cl)Cl)c1 (stereo not drawn)
49 to 51 | COC(=O)c1cccc(CN2CCN(c3nc(C)c(C(=O)NCc4ccccc4)s3)C2=O)c1
256 to 267 | CC(C)Oc1ccc2nc3ccc(C(=O)O)cn3c(=O)c2c1
136 to 138 | COC(=O)Oc1c(Cl)c(-c2ccc(Cl)cc2)oc(=O)c1-c1c(C)cc(C)cc1C
230 | CCCc1nc2ccccc2c(C(=O)O)c1Oc1ccc(-c2ccccc2C(N)=O)cc1
51.2 to 52.8 | CCCOC(=O)CC(c1ccc(OC)cc1)N1C(=O)c2ccccc2C1=O (stereo not drawn)

melting point [°C] | SMILES
106 | CCOC(=O)C1CC(C)CCN1C(=O)c1ccc(Cl)c(C2(C)C(=O)N(Cc3ccc(OC)cc3OC)c3ccc(Cl)cc32)c1 (stereo not drawn)
150 to 152 | COC(=O)c1ccc(CSc2c(C(N)=O)sc3ccc(OC)cc23)cc1
129 to 132 | O=C(NCCO)c1cc2c(Oc3ccc(Cl)cc3)cnc(Cl)c2s1
223 to 224 | CCCNc1cc(C(=O)O)cc(S(N)(=O)=O)c1Oc1ccccc1
111 | CCCCCc1noc(-c2ccc(OCCC3CCN(c4ccc(C)nn4)CC3)cc2)n1
164 | COc1ccc(S(=O)(=O)N2C(=O)C(c3ccccc3OC)(N3CCC[C@H]3C(=S)N(C)C)c3cc(Cl)ccc32)c(OC)c1 (stereo partly drawn)
91 to 95 | CCCc1c(OCc2ccc(C(=O)NCCCCc3cccnc3)cc2)ccc(C(C)=O)c1O
126 to 128 | CC(=O)CN1C(=O)C(NC(=O)Nc2cccc(C)c2)N=C(C)c2cccc(C)c21 (stereo not drawn)
93 to 94 | c1ccc(OCCSCc2nnc(-c3ccc4cc(CN5CCCCC5)ccc4c3)o2)cc1
193 to 194 | Cc1cc(C)n(Cc2ccc(Cl)cc2Cl)c1/C=C/C(=O)O
> 225 | CNC(=O)COc1cccc2c1S(=O)(=O)N=C2C1=C(O)C(C(C)(C)C)N(Cc2ccc(F)cc2)C1=O (stereo not drawn)
51 to 54 | O=Cc1ccc(OCc2cccc(Cl)c2)cc1
157 to 160 | CC(=O)Nc1ccc(OCC(O)CNC(C)(C)C)c(-c2nnco2)c1 (stereo not drawn)
58.1 | CCCCc1cccc(-c2nc(C(C)C)n(C)n2)n1
139 to 140 | Cn1c(Oc2cccc(C(F)(F)F)c2)nc2c(-c3cccc(C(=O)NCCO)c3)cccc21
158 to 159 | COc1cc(OC)cc(C(=O)N2CCc3cc(OCc4ccccc4)ccc3C2=O)c1
